# Tests used:
# [1] = tested on: diclofenac-induced gastric damage; assay: Acute diclofenac-induced gastric toxicity in rats: gastric damage score; assay type: in vivo, rat; settings: for Gastric damage score: Group D: PGE2 100 μg/kg oral 30 min before diclofenac 50 mg/kg oral, 3 h, Group B 17.80 ± 5.08
# Procedure: (§1) Male Wistar rats were deprived of food but not water for 16 hours prior to oral administration of GL1001 90 mg/kg, incubated for 30 minutes and then given oral diclofenac 50 mg/kg. Each group consisted of 6 rats. As a negative control, one group received vehicle pretreatment, and then received vehicle instead of diclofenac. A positive control group received PGE2 100 μg/kg orally, 30 minutes prior to administration of diclofenac. All treatments were administered by oral gavage.
# (§2) Three hours after diclofenac treatment, all animals were sacrificed and stomachs were removed and imaged to determine the severity of gastric damage. Additionally, stomach tissue samples were taken to assess disease activity and pharmacodynamic effects. Gastric damage scores were determined from photographic images (Ma & Wallace (2003) Am. J. Physiol. Gastrointest. Liver Physiol. 279; 341-346). Removed stomachs were opened along the greater curvature, pinned out on a wax block, and photographed along a 25 mm ruler reference with a digital 35 mm camera. The lesion area was then determined using enlarged images and computer software (www.scioncorp.co/pages/scion_image_windows.htm) that allows superimposed drawing of the perimeter of a wound and calculation of the area based on the ruler reference. Stomach samples (excluding forestomach) were used for measurements of PGE2 concentration, MPO activity and ACE2 activity. PRE2 determinations are used in this study as a hiomarker of diclofenac effect since its mechanism of action involves inhibition of cyclooxygenase (COX-2 and COX-1) enzymes which in turn results in inhibition of PGE2 synthesis. Concentration of PGE2 from stomach tissue samples was performed as described by Souza et al. (2003), supra, and quantification was obtained by LC-MS. MTO, an enzyme found in abundance in granulocytes, is used as a biochemical marker of tissue inflammation. When tissues undergo inflammatory processes, granulocytes are recruited to the site of inflammation and infiltrate the affected tissue giving rise to increase MPO activity (Souza et al. (2003), supra). Last, the extent of inhibition of ACE2 activity was determined to establish whether GL1001 was effective in inhibiting its ACE2 target in stomach tissues. The ACE2 activity assay is similar to the method of Vickers et al. (2002) J. Biol. Chem. 277:14838-14843, wherein purified recombinant ACE2 (100 pM) and a quenched fluorescent substrate (100-150 μM APK (7-methoxycoumarin-4-yl)acetyl-Ala-Pro-Lys (2,4-dinitrophenyl)) are used in end-point fluorescence reactions (excitation 320 nm, emission 405 nm). For stomach ACE2 measurements, tissues were homogenized in the presence of a general protease inhibitor (PMSF) and specific ACE inhibitors. […]
# (§3) Data are expressed as means with standard errors. […]
# ACE2 = biological target: T1, ACE2 (Rattus norvegicus, UniProt Q5EGZ1); assay: Acute diclofenac-induced gastric toxicity in rats: ACE2 activity in stomach tissue; assay type: in vivo
# T1 construct: from tissue; host or cells: rat stomach (excluding forestomach) homogenate
# Procedure: as §1
# as §2, with “PRE2 determinations are used in this study as a hiomarker of diclofenac effect since its mechanism of action involves inhibition of cyclooxygenase (COX-2 and COX-1) enzymes which in turn results in inhibition of PGE2 synthesis.” left out, “MTO, an enzyme found in abundance in granulocytes, is used as a biochemical marker of tissue inflammation. When tissues undergo inflammatory processes, granulocytes are recruited to the site of inflammation and infiltrate the affected tissue giving rise to increase MPO activity (Souza et al. (2003), supra).” left out, “nm).” for “nm). For stomach ACE2 measurements, tissues were homogenized in the presence of a general protease inhibitor (PMSF) and specific ACE inhibitors.”
# as §3
# gastric PGE2 synthesis = assay: Acute indomethacin-induced gastric toxicity in rats: gastric PGE2 synthesis; assay type: in vivo, rat; settings: indomethacin 20 mg/kg p.o.
# Procedure: A study was conducted to determine whether GL1001 would inhibit acute NSAID (indomethacin)-induced gastric toxicity in a rat model (Wallace et al. (1998) Gastroenterol. 115:101-109). Several modes of treatment with GL1001 or vehicle were employed, which included administration via drinking water, oral administration and subcutaneous administration as shown in Table 4. Irrespective of the route of drug or vehicle administration, male Wistar rats were deprived of food for 16 h prior to oral administration of 20 mg/kg indomethacin (Sigma) or vehicle (5% w/v sodium bicarbonate; 1 ml/kg). Three hours later the rats were sacrificed and the severity of gastric damage was blindly scored. This involved measurement of the lengths (in mm) of all hemorrhagic erosions and summing these to give a “gastric damage score” for each stomach. Samples of the stomach were taken for measurement of prostaglandin E2 (PGE2) synthesis as described by Wallace et al. (1998), supra, and myeloperoxidase activity as described by Souza et al. (2003) Am. J. Physiol. 285:[…]-61. Myeloperoxidase is an enzyme found in all cells of mycloid origin, but particularly enriched within neutrophils. It is therefore used as a biochemical marker of granulocyte infiltration into tissue. Each group consisted of 6 rats. As a negative control, one group received vehicle pretreatments (in the drinking water and by oral gavage) and then received vehicle instead of indomethacin. […] [table] In the experiments where GL1001 (or vehicle) was added to drinking water, the rats were provided with the modified drinking water for 2 days prior to administration of indomethacin (or vehicle). This included the period when the rats were deprived of food. GL1001 was prepared in 0.1M citrate buffer before being added to the drinking water. Based on average water consumption by rats, this was aimed at providing a daily dose of GL1100 of 1200 mg/kg (water consumption was monitored for several days prior to initiation of the study). Oral or subcutaneous administration of GL1001 (or vehicle) was performed 30 minutes prior to administration of indomethacin. Data are expressed as mean±SEM. When two groups of data were compared, a Student's t-test was used. When more than two groups of data were compared, a one-way analysis of variance followed by the Newman-Keuls test was used. An associated probability of less than 5% was considered statistically significant.
# gastric PGE2 = assay: Acute diclofenac-induced gastric toxicity in rats: gastric PGE2 concentration; assay type: in vivo, rat
# Procedure: as §1
# as §2, with “PRE2 determinations are used in this study as a hiomarker of diclofenac effect since its mechanism of action involves inhibition of cyclooxygenase (COX-2 and COX-1) enzymes which in turn results in inhibition of PGE2 synthesis.” left out, “MTO, an enzyme found in abundance in granulocytes, is used as a biochemical marker of tissue inflammation. When tissues undergo inflammatory processes, granulocytes are recruited to the site of inflammation and infiltrate the affected tissue giving rise to increase MPO activity (Souza et al. (2003), supra).” left out, “nm).” for “nm). For stomach ACE2 measurements, tissues were homogenized in the presence of a general protease inhibitor (PMSF) and specific ACE inhibitors.”
# as §3
# myeloperoxidase = assay: Acute indomethacin-induced gastric toxicity in rats: gastric myeloperoxidase activity; assay type: in vivo, rat; settings: Group J: PGE2 100 μg/kg p.o., indomethacin 20 mg/kg p.o.; vehicle Group I 29.5 ± 2.8
# Procedure: A study was conducted to determine whether GL1001 would inhibit acute NSAID (indomethacin)-induced gastric toxicity in a rat model (Wallace et al. (1998) Gastroenterol. 115:101-109). Several modes of treatment with GL1001 or vehicle were employed, which included administration via drinking water, oral administration and subcutaneous administration as shown in Table 4. Irrespective of the route of drug or vehicle administration, male Wistar rats were deprived of food for 16 h prior to oral administration of 20 mg/kg indomethacin (Sigma) or vehicle (5% w/v sodium bicarbonate; 1 ml/kg). Three hours later the rats were sacrificed and the severity of gastric damage was blindly scored. This involved measurement of the lengths (in mm) of all hemorrhagic erosions and summing these to give a “gastric damage score” for each stomach. Samples of the stomach were taken for measurement of prostaglandin E2 (PGE2) synthesis as described by Wallace et al. (1998), supra, and myeloperoxidase activity as described by Souza et al. (2003) Am. J. Physiol. 285:[…]-61. Myeloperoxidase is an enzyme found in all cells of mycloid origin, but particularly enriched within neutrophils. […] Based on average water consumption by rats, this was aimed at providing a daily dose of GL1100 of 1200 mg/kg (water consumption was monitored for several days prior to initiation of the study). […] Data are expressed as mean±SEM. […]
# duodenal ulcer = settings: administered to treat heart failure; Gidaiatov et al. (2000); cited from earlier work
# [2] = tested on: gastric mucosal erosions, dyspeptic symptoms; settings: cited from earlier work
# T1 sequence (Q5EGZ1 18-805): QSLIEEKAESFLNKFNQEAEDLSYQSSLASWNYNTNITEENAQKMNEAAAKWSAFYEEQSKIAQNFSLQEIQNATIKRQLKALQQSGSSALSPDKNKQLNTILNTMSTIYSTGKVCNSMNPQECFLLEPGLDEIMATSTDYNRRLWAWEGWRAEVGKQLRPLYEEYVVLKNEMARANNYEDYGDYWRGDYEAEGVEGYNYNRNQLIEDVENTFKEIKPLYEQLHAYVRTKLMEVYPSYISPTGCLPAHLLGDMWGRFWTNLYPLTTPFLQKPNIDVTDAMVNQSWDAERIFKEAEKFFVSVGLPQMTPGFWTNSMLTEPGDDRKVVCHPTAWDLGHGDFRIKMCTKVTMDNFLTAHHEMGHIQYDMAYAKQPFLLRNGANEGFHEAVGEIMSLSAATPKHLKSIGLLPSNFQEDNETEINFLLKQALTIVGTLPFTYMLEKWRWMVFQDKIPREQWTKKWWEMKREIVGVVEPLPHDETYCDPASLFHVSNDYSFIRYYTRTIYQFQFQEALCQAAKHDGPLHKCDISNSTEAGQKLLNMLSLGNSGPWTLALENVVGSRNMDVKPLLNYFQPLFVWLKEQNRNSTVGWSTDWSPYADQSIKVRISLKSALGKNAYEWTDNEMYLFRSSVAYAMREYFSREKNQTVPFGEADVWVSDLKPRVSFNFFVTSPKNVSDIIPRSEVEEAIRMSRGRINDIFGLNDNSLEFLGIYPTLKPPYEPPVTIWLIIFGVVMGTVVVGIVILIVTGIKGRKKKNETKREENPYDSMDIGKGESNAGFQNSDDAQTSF
smiles,measurement,setting,value
"CCCCC[C@H](O)/C=C/[C@H]1[C@H](O)CC(=O)[C@@H]1C/C=C\CCCC(=O)O [PGE2, prostaglandin E2]",Gastric damage score,[1],0
same,Gastric damage score,[1]; listed as PCGE2,total absence of gastric lesions
same,Gastric ACE2 activity,"ACE2; Group D: PGE2 100 μg/kg oral before diclofenac 50 mg/kg, Group B 880 ± 39",688 ± 30 pmol/mg
same,Gastric PGE2 synthesis,"gastric PGE2 synthesis; Group J: PGE2 100 μg/kg p.o., vehicle Group I 6.08 ± 1.00",6.10 ± 1.00 ng/mg
same,Gastric PGE2 concentration,gastric PGE2; Group D: PGE2 100 μg/kg oral before diclofenac 50 mg/kg,0 pg/mg
same,Gastric MPO activity,myeloperoxidase,22.8 ± 2.2 U/mg
O=C(O)Cc1ccccc1Nc1c(Cl)cccc1Cl [diclofenac],mean gastric damage score,"[1]; diclofenac 50 mg/kg oral after vehicle pretreatment, 3 h (Group B)",17.8
same,Activity of ACE2 in stomach tissue,"ACE2; diclofenac-treated Group B vs Group A, p=0.052",trend towards up-regulation
same,PGE2 levels in stomach tissue,"gastric PGE2; all treatment groups that received diclofenac 50 mg/kg oral, vehicle Group A 43.22 pg/mg",no detectable
CCOC(=O)[C@H](CCc1ccccc1)N[C@@H](C)C(=O)N1CCC[C@H]1C(=O)O [enalapril],"healing of duodenal ulcer, patients treated",duodenal ulcer,87%
same,percentage of patients with dyspeptic symptoms,"[2]; hypertensive patients, decreased from 78% upon treatment",40%
same,number of patients having gastric mucosal erosions,"[2]; of 30 hypertensive patients, decreased from 11 upon treatment",4
"COc1ccc2c(c1)c(CC(=O)O)c(C)n2C(=O)c1ccc(Cl)cc1 [indomethacin, reference compound]",reduction of gastric PGE2 synthesis,"gastric PGE2 synthesis; irrespective of pretreatment, vehicle only Group E 82 ng/mg",> 92%

# Source: patent publication US20100035848A1, “THERAPY FOR DISORDERS OF THE PROXIMAL DIGESTIVE TRACT” (priority 2008, published 2010)
